Assay results published in US10014546B2 (priority 2012, dated 2018).
Like-named read-outs stand apart in the source and are kept apart here.

Assays:
[1] = format: physicochemical

In the case of `O.O.O.O.O.O.[Fe+3]` [Fe^III/II(H2O)6, reference compound], the “E1/2, V vs. RHE” value ([1]; pH 0) is reported as “+0.77 V vs. RHE”.
With `Oc1cccc2c1[O][Ti-2]13([O]2)([O]c2cccc(O)c2[O]1)[O]c1cccc(O)c1[O]3.[K+].[Na+]` [Ti(pyrogallate)^2−/3−, Sodium potassium titanium(IV) trispyrogallate] the “E1/2, V vs. RHE” value ([1]; pH 9.8) was −0.55 V vs. RHE.
With `CC(O)C(=O)[O-].CC(O)C(=O)[O-].O=C([O-])c1ccccc1O.[Ti+3]` [Ti^IV/III(lactate)2(salicylate), titanium bis-lactate mono-salicylate] the solubility (physchem) was ≥ 1500 mM.
With “Sodium titanium(IV) triscitrate [Ti(citrate)3^2−/3−]” the “E1/2, V vs. RHE” value ([1]; pH 5) was −0.04 V vs. RHE.
In the case of “iron tris-(α-hydroxyacetate) [Fe^III/II(α-hydroxyacetate)3]”, the “E1/2, V vs. RHE” value ([1]; pH 8.1) is reported as −0.50 V vs. RHE.
In the case of iron tris-malate [Fe^III/II(malate)3], the “E1/2, V vs. RHE” value ([1]; pH 9.2) is reported as −0.30 V vs. RHE.
In the case of “titanium bis-lactate [Ti^IV/III(lactate)2]”, the “E1/2, V vs. RHE” value ([1]; pH 2) is reported as −0.03 V vs. RHE, the “E1/2, V vs. RHE” value ([1]; pH 3.6) is reported as −0.40 V vs. RHE and the “E1/2, V vs. RHE” value ([1]; pH 9) is reported as −0.40 V vs. RHE.
In the case of “titanium mono-lactate [Ti^IV/III(lactate)1]”, the “E1/2, V vs. RHE” value ([1]; pH 3.6) is reported as −0.34 V vs. RHE, the “E1/2, V vs. RHE” value ([1]; pH 5.6) is reported as −0.40 V vs. RHE and the “E1/2, V vs. RHE” value ([1]; pH 9) is reported as −0.54 V vs. RHE.
